Like-named read-outs stand apart in the source and are kept apart here.
Key:
HL-60 = experiment: In vitro anti-tumor activity of molecular glue compounds, CellTiter-Lumi cell viability assay; type: cell-based; conditions: Homo sapiens; HL-60 cells, 96 h incubation; read-out: Cell inhibitory activity (IC50 values) HL-60
Description: (§1) Different tumor cells were all commercially available and used for evaluating the anti-tumor inhibitory activity of the compounds of the present disclosure. Various tumor cells were cultured until the cell confluency reached 80%-90%, with cell viability above 90% as determined by trypan blue exclusion. Then, the cells were plated. Specifically, after cell density optimization, 100 µL of each of the cell suspensions of HL-60 and SK-BR-3 cells (cell density: 3000 cells/well), Romas cells (cell density: 6000 cells/well), NCI-H929 cells (cell density: 4000 cells/well), and NCI-H82 cells (cell density: 5000 cells/well) was plated in a BeyoGold™ ultra-low attachment black clear-bottom 96-well plate (Cat. No.: FULA965-24pcs), and the plate was incubated overnight. The next day, after the adherent cells were adhered to the wall and suspension cells requiring aggregation were aggregated, 50 µL of culture medium was aspirated from each well of the 96-well plate. Then, the compounds diluted with the corresponding culture media were added. Specifically, the compounds were serially diluted at a 5-fold gradient starting from the highest concentration of 1 µM, with a final DMSO concentration of 1%o, and the test compounds were then added to the cell culture plate. The plate was incubated in an incubator at 37 °C with 5% carbon dioxide for 96 h. Before measurement, the CellTiter-Lumi™ luminescent cell viability assay reagent was equilibrated to room temperature in the dark. Then, 50 µL of the CellTiter-Lumi™ (Cat. No.: C0065XL) cell viability assay reagent was added to each well of the 96-well plate. The plate was shaken in the dark on a shaker at 300 rpm for 10 min to ensure complete cell lysis. After the reaction was completed, the luminescence was measured on a multi-mode microplate reader. The cell inhibition rate was determined according to the luminescence. Then, a cell viability curve was generated by Graphpad Prism 8.0, and the IC50 values were calculated. The compounds of the present disclosure were tested for activity by the method described above. Table 1. Cell inhibitory activity (IC50 values)

NCI-H82 = experiment: as above; type: cell-based; conditions: Homo sapiens; NCI-H82 cells, 96 h incubation; read-out: Cell inhibitory activity (IC50 values) NCI-H82
Description: as §1

NCI-H929 = experiment: as above; type: cell-based; conditions: Homo sapiens; NCI-H929 cells, 96 h incubation; read-out: Cell inhibitory activity (IC50 values) NCI-H929
Description: as §1

Romas = experiment: as above; type: cell-based; conditions: Romas cells, 96 h incubation; read-out: Cell inhibitory activity (IC50 values) Romas
Description: as §1

SK-BR-3 = experiment: as above; type: cell-based; conditions: Homo sapiens, SK-BR-3 cells
Description: as §1

in vitro = conditions: rat, liver microsomes
Description: (§2) The final concentration of the substrate in the incubation system was 1 µM, and the incubation time was 60 min. Sampling was performed at 0 min, 5 min, 15 min, 30 min, and 60 min. The reaction was stopped with glacial acetonitrile containing an internal standard (testosterone-d3 at a concentration of 10 ng/mL). Verapamil was used as a positive control. […] The natural logarithm of the remaining percentage was subjected to linear fitting with time to determine the elimination rate constant (k).

[1] = Metabolic stability in liver microsomes; conditions: Dog liver microsomes, after 60 min of incubation
Description: as §2

[2] = Metabolic stability in liver microsomes; conditions: Rat liver microsomes, after 60 min of incubation
Description: as §2

O=C1CCC(N2Cc3cc(CNC(=O)Nc4ccc(CCCOC5CCCNC5)c(Cl)c4)ccc3C2=O)C(=O)N1 (stereo not shown) [Compound B19]
IC50 (HL-60): < 0.01 µM | IC50 (NCI-H82): 0.01 to 0.05 µM | IC50 (NCI-H929): < 0.01 µM | IC50 (Romas): < 0.01 µM | IC50 (SK-BR-3; 96 h incubation, read-out: Cell inhibitory activity (IC50 values) SK-BR-3): < 0.01 µM | IC50 (SK-BR-3; read-out: SK-BR-3 IC50): 0.00362 µM | CLint scaled at 1 µM (in vitro): 6.55 mL/min/kg | half-life at 1 µM (in vitro): 6.32 h | Parent drug remaining % [1]: 118% | Parent drug remaining % [2]: 88.1%
